The text below walks through data of patent US20030143608A1, “Drug response marker in beta-1 adrenergic receptor gene” (Myriad Genetics, Incorporated, priority 2001, published 2003).

In this assay the test system is patients with symptoms diagnosed as hypertension. Nature of the assay: Antihypertensive drug response by beta-1 adrenergic receptor A145G genotype in hypertensive patients. The format is in vivo, human. Particulars: for Average Change in Blood Pressure: Sardinian hypertensive patients, atenolol 100 mg b.i.d., HCTZ 25 mg u.i.d. or fosinopril 20 mg u.i.d. for 2 months, change from baseline. The protocol:
For our study, three drugs—fosinopril, atenolol, and hydrochlorothiazide—were administered to patients with symptoms diagnosed as hypertension (a diastolic blood pressure above 89 mmHg and a systolic blood pressure above 139 mmHg). Since essential hypertension is a complex multifactorial disease with an environmental component and a genetic interaction basis, we selected a […] patient sample from Sardinia, which ensured genetic homogeneity. Piazza, Science 260:1767-9 (1993). Patients were unrelated Sardinian from at least 2 generations. Approximately 75% of the patients were previously untreated for hypertension, whereas the remaining were absent from antihypertensive treatment for at least 6 months prior to testing, thus ensuring that modifications in blood pressure during the study were mostly due to the drug under study and not the spurious effects related to previous treatments.
After a 2-month pre-treatment period, during which blood pressure was measured periodically, patients with blood pressure (as average of 3 measurements performed in standard conditions) still over 140/90 (n=494) where randomly assigned to one of the following drugs: atenolol 100 mg b.i.d., hydrochlorothiazide (HCTZ) 25 mg u.i.d. or fosinopril 20 mg u.i.d. for 2 months. After a treatment was begun, patient blood pressure, heart rate and body weight were assessed every 2 weeks, and values at +4 and +8 weeks tabulated and considered for analysis.
Genomic DNA was extracted from the leukocytes of each individual using a genomic DNA extraction kit based on […]. Genomic DNA of the beta-1 adrenergic receptor gene was then amplified using standard PCR procedures. The PCR product was diluted 1:10 in EDTA 1 mM and then submitted for automated sequencing carried out with an Applied Biosystems Sequencer using dye primer chemistry.
To evaluate the association between each patient's genotype and the response of the individual to the respective drug, the change in blood pressure was analyzed from the baseline to the follow-up measurements at 4 and 8 weeks. A linear regression model was then used to adjust for the effect of baseline blood pressure levels and sex of the individual. The difference in average change of blood pressure between genotypes for each time interval was determined through analysis of covariance.

The mark [1] stands for this setting: genotype AA (homozygous wild-type).
Where [2] appears, read: genotype GG (homozygous A145G variant).

`CC(C)NCC(O)COc1ccc(CC(N)=O)cc1` (stereo not shown) [Atenolol, atenolol]: the “Average Change in Blood Pressure” value was −17.3 mmHg under setting [1], −17.9 mmHg (genotype AG (heterozygous)) and −10.6 mmHg under setting [2].

Consider `CCC(=O)O[C@@H](O[P@](=O)(CCCCc1ccccc1)CC(=O)N1C[C@H](C2CCCCC2)C[C@H]1C(=O)O)C(C)C` [Fosinopril, fosinopril], for which the “Average Change in Blood Pressure” value runs as follows: under setting [1], −12.3 mmHg; (genotype AG (heterozygous)) −8.6 mmHg; under setting [2], −23.0 mmHg.

For the compound `NS(=O)(=O)c1cc2c(cc1Cl)NCNS2(=O)=O` [Hydrochlorothiazide, hydrochlorothiazide], the “Average Change in Blood Pressure” value was −10.2 mmHg under setting [1], −12.9 mmHg (genotype AG (heterozygous)) and −30.5 mmHg under setting [2]. The “relative blood pressure response between drugs” value (individuals homozygous for A145G (GG), analysis of covariance, adjusted for baseline blood pressure and sex) was “more likely (p=0.0055) to experience a significant decrease in blood pressure”.
